The results in this text go back to patent US20150297605A1, “METHODS FOR TREATING CANCER USING TOR KINASE INHIBITOR COMBINATION THERAPY” (Signal Pharmaceuticals, LLC, priority 2014, published 2015).

Assay type in all cases: cell-based
In assay [1] the test system is MDA-MB-453 breast cancer cell line. Nature of the assay: Anti-proliferation assay, synergy score, MDA-MB-453. The settings on record: in combination with Compound 1, 72 h, mean self cross score + 2σ 2.99. The protocol: (§1) Anti-Proliferation Assay. Cells were thawed from a liquid nitrogen preserved state. Once cells expanded and divided at their expected doubling times, screening began.
(§2) Cells were equilibrated in assay plates via centrifugation and placed in incubators attached to the Dosing Modules at 37° C. for twenty-four hours before treatment. […] These T zero (T0) plates were read using ultra-sensitive luminescence on Envision Plate Readers. Treated assay plates were incubated with compound (single compound or combination) for seventy-two hours. After seventy-two hours, platesweare developed for endpoint analysis using ATPLite. […] The calculation for synergy score is provided below.
(§3) Growth Inhibition (GI) was used as a measure of cell viability. The cell viability of vehicle was measured at the time of dosing (T0) and after seventy-two hours (T72). […] A GI 200% represents complete death of all cells in the culture well. Compounds reaching an activity plateau of GI 200% are considered cytotoxic. GI is calculated by applying the following test and equation: […]
(§4) where T is the signal measure for a test article, V is the vehicle-treated control measure, and V0 is the vehicle control measure at time zero. This formula is derived from the Growth Inhibition calculation used in the National Cancer Institute's NCI-60 high throughput screen.
(§5) Synergy Score Analysis. Synergy scores were determined using the Chalice Software (Zalicus Inc., Cambridge Mass.). […] The Synergy Score is calculated as: […]
(§6) The fractional inhibition for each component agent and combination point in the matrix was calculated relative to the median of all vehicle-treated control wells. […]
(§7) In order to objectively establish hit criteria for the combination screen analysis, twenty compounds were selected to be self-crossed across the seventeen cell line panel as a means to empirically determine a baseline additive, non-synergistic response. The identity of the twenty self-cross compounds was determined by selecting compounds with a variety of maximum response values and single agent dose response steepness.

In assay [2] the test system is HCC-1187 breast cancer cell line. Nature of the assay: Anti-proliferation assay, synergy score, HCC-1187. The settings on record: in combination with Compound 1, 72 h, mean self cross score + 2σ 4.80. How it is done: as §1, §2, §3, §4, §5, §6, §7
The subject of assay [3] is HCC-1937 breast cancer cell line. Kind of assay: Anti-proliferation assay, synergy score, HCC-1937. The settings on record: in combination with Compound 1, 72 h, mean self cross score + 2σ 2.89. The protocol:
as §1, §2, §3, §4, §5, §6, §7

For assay [4], the system named is BT-549 breast cancer cell line. Nature of the assay: Anti-proliferation assay, synergy score, BT-549. The settings on record: in combination with Compound 1, 72 h, mean self cross score + 2σ 3.94. The protocol: as §1, §2, §3, §4, §5, §6, §7
Assay [5] has as its system HCC-1500 breast cancer cell line. Nature of the assay: Anti-proliferation assay, synergy score, HCC-1500. The settings on record: in combination with Compound 1, 72 h, mean self cross score + 2σ 4.17. The protocol: as §1, §2, §3, §4, §5, §6, §7
For assay [6], the system named is BT-20 breast cancer cell line. Nature of the assay: Anti-proliferation assay, synergy score, BT-20. The settings on record: in combination with Compound 1, 72 h, mean self cross score + 2σ 3.23. How it is done:
as §1, §2, §3, §4, §5, §6, §7

The subject of assay [7] is HCC-1428 breast cancer cell line. Nature of the assay: Anti-proliferation assay, synergy score, HCC-1428. The settings on record: in combination with Compound 1, 72 h, mean self cross score + 2σ 3.22. How it is done:
as §1, §2, §3, §4, §5, §6, §7

Assay [8] relates to BT-474 breast cancer cell line. Kind of assay: Anti-proliferation assay, synergy score, BT-474. The settings on record: in combination with Compound 1, 72 h, mean self cross score + 2σ 3.37. How it is done:
as §1, §2, §3, §4, §5, §6, §7

Assay [9] concerns HCC-1806 breast cancer cell line. Kind of assay: Anti-proliferation assay, synergy score, HCC-1806. The settings on record: in combination with Compound 1, 72 h, mean self cross score + 2σ 5.05. The protocol: as §1, §2, §3, §4, §5, §6, §7
Assay [10] relates to 5637 (bladder cancer, romidepsin sensitive cell line). Nature of the assay: Anti-proliferation assay (CellTiter-Glo), Bliss independence model, 5637. The settings on record: combination treatment with Romidepsin, 5637 (S), 72 h, greater than 10% considered synergistic. How it is done: (§8) Anti-Proliferation Assay. […] Cells were thawed from a liquid nitrogen preserved state. Once cells were expanded and divided at their expected doubling times, screening began. Cells were seeded in their respective growth media in 96-well tissue culture treated plates at 2000 cells/well and placed in incubators at 37° C. the night before treatment. […] These T zero (T0) plates were read using luminescence on Spectramax Plate Readers. Treated assay plates were incubated with Compound for seventy-two hours. After seventy-two hours, plates were developed for endpoint analysis using CellTiter-Glo. The calculation for synergy score is provided below.
(§9) Growth Inhibition (GI) was used as a measure of cell viability. The cell viability of vehicle was measured at the time of dosing (T0) and after seventy-two hours (T72). A GI reading of 0% represents no growth inhibition—cells treated with compound and T72 vehicle signals are matched. A GI 100% represents complete growth inhibition—cells treated by compound and T0 vehicle signals are matched. […] A GI 200% represents complete death of all cells in the culture well. […] GI is calculated by applying the following test and equation: […]
(§10) We next compared the expected compound effect to the observed compound effect, and calculated the differences between the observed and the expected cell viability, expressed as % of control. […]

In assay [11] the test system is SKOV3 (ovarian cancer, romidepsin resistant cell line). Nature of the assay: Anti-proliferation assay (CellTiter-Glo), Bliss independence model, SKOV3. The settings on record: combination treatment with Romidepsin, SKOV3 (R), 72 h, greater than 10% considered synergistic. How it is done: as §8, §9, §10
For assay [12], the system named is MDA-MB-175-VII breast cancer cell line. Kind of assay: Anti-proliferation assay, synergy score, MDA-MB-175-VII. The settings on record: in combination with Compound 1, 72 h, mean self cross score + 2σ 2.82. How it is done: as §1, §2, §3, §5, §6
Assay [13] deals with 5637 and SKOV3 cancer cell lines. Kind of assay: Anti-proliferation assay (CellTiter-Glo), Bliss independence model, overall conclusion. The settings on record: combination with romidepsin. The protocol:
as §8, §9, §10

For `C/C=C1\NC(=O)[C@H]2CSSCC/C=C/[C@H](CC(=O)N[C@H](C(C)C)C(=O)N2)OC(=O)[C@H](C(C)C)NC1=O` [Romidepsin, (1S,4S,7Z,10S,16E,21R)-7-ethylidene-4,21-bis(1-methylethyl)-2-oxa-12,13-dithia-5,8,20,23-tetrazabicyclo[8.7.6]tricos-16-ene-3,6,9,19,22-pentone], the “Synergy Score” value came to 13.80 in [1]; 6.10 in assay [2]; 12.50 in assay [3]; 12.00 in [4]; 4.80 in [5]; 8.00 in [6]. The “Synergy Score” value in assay [7] worked out at 4.80; in assay [8] it was 6.00; in assay [9] it was 8.39.
In the case of `CCN1C(=O)CNc2ncc(-c3ccc(-c4nc[nH]n4)nc3C)nc21` [Compound 1, 1-ethyl-7-(2-methyl-6-(1H-1,2,4-triazol-3-yl)pyridin-3-yl)-3,4-dihydropyrazino[2,3-b]pyrazin-2(1H)-one], the “differences between observed and expected cell viability (% of control)” value in assay [10] is reported as 16%; in assay [11], 23%.
On to `O=C(/C=C/c1cccc(S(=O)(=O)Nc2ccccc2)c1)NO` [Belinostat], for which the “Synergy Score” value in [12] was found to be 3.21; in [1], 14.80; in assay [2] it was 4.60; in assay [3], 14.50; in assay [4], 9.09; in assay [5], 4.58. For the same compound, the “Synergy Score” value in assay [6] turned out to be 9.26; in [7], 7.23; in assay [8], 6.88; in [9], 11.40.
`Nc1ccccc1NC(=O)c1ccc(CNC(=O)OCc2cccnc2)cc1` [MS-275]: the “Synergy Score” value in assay [12] was determined as 6.71; in [1], 14.60; in assay [2], 7.64; in [3], 9.75; in assay [4] it was 11.80; in assay [5], 2.18. The “Synergy Score” value in assay [6] is 5.84; in assay [7], 1.65; in [8], 7.79; in assay [9] it was 10.00.
Consider `CO[C@H]1CC[C@H](N2C(=O)CNc3ncc(-c4ccc(C(C)(C)O)nc4)nc32)CC1` [Compound 2, 7-(6-(2-hydroxypropan-2-yl)pyridin-3-yl)-1-((1r,4r)-4-methoxycyclohexyl)-3,4-dihydropyrazino-[2,3-b]pyrazin-2(1H)-one], for which the “combination effect (conclusion in words)” value in assay [13] is listed as “synergism was observed”. The “differences between observed and expected cell viability (% of control)” value in [10] is listed as 19%; in [11], 27%.
